In patent US20160368919A1, “NOVEL PYRIDINE PYRAZINONES AS BET-FAMILY BROMODOMAIN INHIBITORS” (Pfizer Inc., priority 2015, published 2016):

Experiments:
[1] = tested on: LPS-induced IL-6 production in human whole blood; assay: IL-6 human whole blood (HWB) assay, LPS-stimulated, HTRF detection; assay type: cell-based; details: 1 ng/ml LPS, 4 hours
Protocol: Compound effect on IL-6 production was determined using lipopolysaccharide (LPS)-stimulated human whole blood and an HTRF (Homogeneous Time-Resolved Fluorescence) IL-6 detection kit (Human IL6 HTRF Assay CisBio 62IL6PEC). HWB was collected by venous puncture from healthy donors, transferred to a 50 ml polypropylene tube containing sodium heparin (14.3 units per mL of HWB) and then placed in a 37° C. water bath until use. To start the assay, 80 μL of heparin-treated HWB containing 1 ng/ml of LPS (equivalent to LPS ˜EC80 with regard to stimulation of IL-6 production in HWB under these assay conditions) was added to each well of a 384-well, sterile, endotoxin-free, polypropylene plate (Greiner 781281) containing 160 nL of various concentrations of test compound (each plate also contained positive and negative control wells to define the upper and lower limits of the assay signal). The plate was then placed in a thermoshaker incubator set to 370C (Boekel 270440). The final assay concentration (FAC) of test compound ranged from 60 to 0.0006 μM and the FAC of DMSO was 0.2%. After 4 hours, the assay plate was removed from the incubator and centrifuged at 700×g for 10 minutes. 5 μL of the resulting upper plasma layer was removed from each well and diluted 1:2 with 1×Dulbecco's phosphate buffered saline (DPBS). 5 μL of this diluted plasma was then transferred to a white 384-well low volume assay plate (Greiner 784080) containing 5 μL of combined anti-IL-6-Cryptate and anti-IL-6-XL665 detection antibodies (per manufacturer's protocol). The plate was then sealed with a Top Seal (Perkin Elmer 6005185) and incubated at room temperature (RT, 20° C.). After 16-18 hrs (overnight), the HTRF assay signal was read on an Envision 2103 plate reader using a Lance Delfia Dual/Bias mirror TRF laser excitation and emission was measured at 665 nm and 615 nm respectively. The percent (%) effect was calculated for each concentration of test compound and was relative to the amount of HTRF signal produced by the positive and negative control wells contained within each assay plate. The concentrations and % effect values for test compounds were plotted versus each other with a proprietary curve fitting program using a four-parameter logistic dose response equation and the concentration of compound required for 50% effect (IC50) was determined.

BRD4 BD1 = target: T1, BRD4 BD1 (Homo sapiens, UniProt O60885); assay: BRD4 BD1 Fluorescence Polarization (FP) competition binding assay; details: BRD4 BD1 40 nM, probe PFI-411FP 2 nM
T1 construct: His-tagged BRD4 BD1 (44-160); made in house
Protocol: Compound binding to BRD4 BD1 was assessed with a FP competition binding assay. […] All assay components were diluted in 50 mM HEPES pH 7.4 containing 0.08% bovine serum albumin (assay buffer). To start the assay, 8 μL of BRD4 BD1 was added to each well of a low volume 384-well black flat bottom microtiter plate (Corning 3820) containing 4 μl of various concentrations of test compound (each plate also contained positive and negative control wells to define the upper and lower limits of the assay signal). After addition of BRD4 BD1, the assay plate was incubated at room temperature (RT, 20° C.). After 15 minutes, 4 μL of PFI-411FP was added to each well and the assay plate was placed in the dark at RT. The final assay concentration (FAC) of PFI-411FP was 2 nM, the FAC of BRD4 BD1 was 40 nM, the FAC of test compound ranged from 120 to 0.0012 μM and the FAC of DMSO was 0.4%. After 60 min, polarization values were measured with an Envision 2103 multilabel reader (Perkin Elmer) using a Cy5 dual enhanced mirror and excitation at 620 nm and emission at 688 nm. The percent (%) effect was calculated for each concentration of test compound and was relative to the amount of polarization signal produced by the positive and negative control wells contained within each assay plate. The concentrations and % effect values for test compounds were plotted versus each other with a proprietary curve fitting program using a four-parameter logistic dose response equation and the concentration of compound required for 50% effect (IC50) was determined. The Ki values of competitive inhibitors were calculated using the equation described by Nikolovska-Coleska et al. (Development and optimization of a binding assay for the XIAP BIR3 domain using fluorescence polarization. Analytical Biochemistry (2004) 332: 261-273).

IC50 [1] | IC50 (BRD4 BD1) | SMILES
38400 nM | 730 nM | COc1ccccc1[C@H](C)n1c(=O)c(NCCC(=O)O)nc2ccc(N(C)C(C)=O)nc21 [Example 1, N-{6-[acetyl(methyl)amino]-4-[(1S)-1-(2-methoxyphenyl)ethyl]-3-oxo-3,4-dihydropyrido[2,3-b]pyrazin-2-yl}-beta-alanine]
 | 2710 nM | CCN(C(C)=O)c1ccc2nc(NCCC(=O)O)c(=O)n([C@@H](C)c3ccccc3OC)c2n1 [Example 2, N-{6-[acetyl(ethyl)amino]-4-[(1S)-1-(2-methoxyphenyl)ethyl]-3-oxo-3,4-dihydropyrido[2,3-b]pyrazin-2-yl}-beta-alanine]
2050 nM | 117 nM | CC[C@@H](c1ccccc1)n1c(=O)c(NCCC(=O)O)nc2ccc(N(C)C(C)=O)nc21 [Example 3, N-{6-[acetyl(methyl)amino]-3-oxo-4-[(1S)-1-phenylpropyl]-3,4-dihydropyrido[2,3-b]pyrazin-2-yl}-beta-alanine]
14100 nM | 956 nM | CC[C@@H](c1ccccc1)n1c(=O)c(NCCC(=O)O)nc2ccc(N(C)C(=O)CO)nc21 [Example 4, N-{6-[(hydroxyacetyl)(methyl)amino]-3-oxo-4-[(1S)-1-phenylpropyl]-3,4-dihydropyrido[2,3-b]pyrazin-2-yl}-beta-alanine]
1580 nM | 653 nM | CNc1nc2ccc(N(C)C(C)=O)nc2n([C@@H](C)c2ccccc2OC)c1=O [Example 5, N-{4-[(1S)-1-(2-methoxyphenyl)ethyl]-2-(methylamino)-3-oxo-3,4-dihydropyrido[2,3-b]pyrazin-6-yl}-N-methylacetamide]
1420 nM | 155 nM | CC[C@@H](c1ccccc1)n1c(=O)c(NCCC(=O)O)nc2ccc(N(C)C(=O)C(C)C)nc21 [Example 6, N-{6-[methyl(2-methylpropanoyl)amino]-3-oxo-4-[(1S)-1-phenylpropyl]-3,4-dihydropyrido[2,3-b]pyrazin-2-yl}-beta-alanine]
2390 nM | 130 nM | CCCC(=O)N(C)c1ccc2nc(NCCC(=O)O)c(=O)n([C@@H](CC)c3ccccc3)c2n1 [Example 7, N-{6-[butanoyl(methyl)amino]-3-oxo-4-[(1S)-1-phenylpropyl]-3,4-dihydropyrido[2,3-b]pyrazin-2-yl}-beta-alanine]
1800 nM | 122 nM | CC[C@@H](c1ccccc1)n1c(=O)c(NCCC(=O)O)nc2ccc(N(C)C(=O)C3CCC3)nc21 [Example 8]
3830 nM | 150 nM | CC[C@@H](c1ccccc1)n1c(=O)c(NCCC(=O)O)nc2ccc(N(C)C(=O)NC)nc21 [Example 9, N-{6-[methyl(methylcarbamoyl)amino]-3-oxo-4-[(1S)-1-phenylpropyl]-3,4-dihydropyrido[2,3-b]pyrazin-2-yl}-beta-alanine]
2680 nM | 251 nM | CCC(=O)N(C)c1ccc2nc(NCCC(=O)O)c(=O)n([C@@H](CC)c3ccccn3)c2n1 [Example 11, N-{6-[methyl(propanoyl)amino]-3-oxo-4-[(1S)-1-(pyridin-2-yl)propyl]-3,4-dihydropyrido[2,3-b]pyrazin-2-yl}-beta-alanine]
18100 nM | 805 nM | CCC(=O)N(C)c1ccc2nc(NCCC(=O)O)c(=O)n(C3(c4ccccc4)CCC3)c2n1 [Example 12, N-{6-[methyl(propanol)amino]-3-oxo-4-(1-phenylcyclobutyl)-3,4-dihydropyrido[2,3-b]pyrazin-2-yl}-beta-alanine]
 | 10200 nM | CCC(=O)N(C)c1ccc2nc(NCCC(=O)O)c(=O)n([C@@H]3COC[C@H]3c3ccccc3)c2n1 [Example 15, N-{6-[methyl(propanoyl)amino]-3-oxo-4-[(3S,4S)-4-phenyltetrahydrofuran-3-yl]-3,4-dihydropyrido[2,3-b]pyrazin-2-yl}-beta-alanine]
 | 3880 nM | CC[C@H](COC)n1c(=O)c(NCCC(=O)O)nc2ccc(N(C)C(C)=O)nc21 [Example 16, N-{6-[acetyl(methyl)amino]-4-[(2R)-1-methoxybutan-2-yl]-3-oxo-3,4-dihydropyrido[2,3-b]pyrazin-2-yl}-beta-alanine]
 | 4190 nM | CCC(=O)N(C)c1ccc2nc(NCC(=O)NC)c(=O)n([C@H](CC)COC)c2n1 [Example 18, N-(4-[(2R)-1-methoxybutan-2-yl]-2-{[2-(methylamino)-2-oxoethyl]amino}-3-oxo-3,4-dihydropyrido[2,3-b]pyrazin-6-yl)-N-methylpropanamide]
 | 4030 nM | CCC(=O)N(C)c1ccc2nc(NCC(=O)NC)c(=O)n(C(COC)COC)c2n1 [Example 19, N-(4-(1,3-dimethoxypropan-2-yl)-2-((2-(methylamino)-2-oxoethyl)amino)-3-oxo-3,4-dihydropyrido[2,3-b]pyrazin-6-yl)-N-methylpropionamide]
 | 1580 nM | CCC(=O)N(C)c1ccc2nc(NCCC(=O)O)c(=O)n(C3(C4CCCC4)CC3)c2n1 [Example 24, N-{4-(1-cyclopentylcyclopropyl)-6-[methyl(propanoyl)amino]-3-oxo-3,4-dihdropyrido[2,3-b]pyrazin-2-yl}-beta-alanine]
 | 6370 nM | CC[C@@H](c1ccccc1)n1c(=O)c(NCCC(=O)O)nc2ccc(N(C)C(=O)C3CC(C)(C)C3)nc21 [Example 25, N-(6-{[(3,3-dimethylcyclobutyl)carbonyl](methyl)amino}-3-oxo-4-[(1S)-1-phenylpropyl]-3,4-dihydropyrido[2,3-b]pyrazin-2-yl)-beta-alanine]
 | 7590 nM | CC[C@@H](c1ccccc1)n1c(=O)c(NCCC(=O)O)nc2ccc(N(C)C(=O)C3CC(F)(F)C3)nc21 [Example 26, N-(6-{[(3,3-difluorocyclobutyl)carbonyl](methyl)amino}-3-oxo-4-[(1S)-1-phenylpropyl]-3,4-dihydropyrido[2,3-b]pyrazin-2-yl)-beta-alanine]
 | 1500 nM | CC[C@@H](c1ccccc1)n1c(=O)c(NCCC(=O)O)nc2ccc(N(C)C(=O)C3COC3)nc21 [Example 27, N-{6-[methyl(oxetan-3-ylcarbonyl)amino]-3-oxo-4-[(1S)-1-phenylpropyl]-3,4-dihydropyrido[2,3-b]pyrazin-2-yl}-beta-alanine]
 | 2480 nM | CCOc1ccccc1Cn1c(=O)c(NCCN2CCOCC2)nc2ccc(-c3c(C)noc3C)nc21 [Example 36, 6-(3,5-dimethyl-1,2-oxazol-4-yl)-4-(2-ethoxybenzyl)-2-{[2-(morpholin-4-yl)ethyl]amino}pyrido[2,3-b]pyrazin-3(4H)-one]
 | 474 nM | Cc1noc(C)c1-c1ccc2nc(NCCN3CCOCC3)c(=O)n(Cc3ccccc3)c2n1 [Example 37, 4-benzyl-6-(3,5-dimethyl-1,2-oxazol-4-yl)-2-{[2-(morpholin-4-yl)ethyl]amino}pyrido[2,3-b]pyrazin-3(4H)-one]
 | 532 nM | CC[C@H](c1ccccc1)n1c(=O)c(NCCN2CCOCC2)nc2ccc(-c3c(C)noc3C)nc21 [Example 38, 6-(3,5-dimethyl-1,2-oxazol-4-yl)-2-{[2-(morpholin-4-yl)ethyl]amino}-4-[(1R)-1-phenylpropyl]pyrido[2,3-b]pyrazin-3(4H)-one]
 | 4870 nM | Cc1noc(C)c1-c1ccc2nc(NCCC(=O)O)c(=O)n(C3CCOCC3)c2n1 [Example 49, N-[6-(3,5-dimethyl-1,2-oxazol-4-yl)-3-oxo-4-(tetrahydro-2H-pyran-4-yl)-3,4-dihydropyrido[2,3-b]pyrazin-2-yl]-beta-alanine]
